Experimental data reported in US8772292B2, “Process for the preparation of a medicament comprising vardenafil hydrochloride trihydrate” (Ratiopharm GmbH, priority 2007, dated 2014).
Where a name gives a salt, the structure may show the parent alone.

Experiment: Raman spectra after processing steps (hydrate stability in tablets)
Type: physicochemical
Protocol: Vardenafil hydrochloride trihydrate and anhydrate can be identified and distinguished from one another e.g. by means of Raman spectroscopy.
Raman spectra were recorded after the processing steps of precompacting, subsequent mixing, pressing and coating (FIGS. 1 and 2). For this, the film was scratched off from the film-coated tablets beforehand. The Raman spectra of the pure vardenafil hydrochloride trihydrate and of the anhydrate are also shown for comparison.
In the relevant range of 1694-1702 cm^−1, the auxiliaries used in Example 1 had no influence on the vardenafil bands (measurement on a placebo tablet is not also shown).

stability of the hydrate under the processing conditions (Example 4: coating at intake air temperature of 60-65° C.): dehydrated
stability of the hydrate under the processing conditions (Examples 1 to 3: approx. 23° C., 33-35% rel. humidity, coating intake air 45° C.): stable
SMILES: CCCc1nc(C)c2c(=O)[nH]c(-c3cc(S(=O)(=O)N4CCN(CC)CC4)ccc3OCC)nn12 [Vardenafil hydrochloride trihydrate, {2-ethoxy-5-[(4-ethyl-1-piperazinyl)sulfonyl]phenyl}-5-methyl-7-propylimidazo-[5,1-f][1,2,4]triazin-4(3H)one]
